Source: patent US20070275935A1, “Estratriene Derivatives” (priority 2003, published 2007)

Key:
Estrogen Receptor (ER) = biological target: T1, Estrogen Receptor (ER) (Rattus norvegicus, UniProt P06211); experiment: Estrogen receptor binding assay, 3H-estradiol displacement from rat uterine cytosol; settings: for displacement of ^3H-Estradiol, in words: concentrations up to 10 μM; for ER affinity (pIC50 ^3H-E2 displacement): rat uterine cytosol, 0.2 nM [3H]-E2, tested up to 10 μM; for IC50: read-out: ER-RLB pIC50 (converted)
T1 construct: using rat uterine cytosol as a source of ER; from tissue; host or cells: rat uterus, cytosol fraction (30000 x g supernatant)
T1 sequence (P06211 1-600): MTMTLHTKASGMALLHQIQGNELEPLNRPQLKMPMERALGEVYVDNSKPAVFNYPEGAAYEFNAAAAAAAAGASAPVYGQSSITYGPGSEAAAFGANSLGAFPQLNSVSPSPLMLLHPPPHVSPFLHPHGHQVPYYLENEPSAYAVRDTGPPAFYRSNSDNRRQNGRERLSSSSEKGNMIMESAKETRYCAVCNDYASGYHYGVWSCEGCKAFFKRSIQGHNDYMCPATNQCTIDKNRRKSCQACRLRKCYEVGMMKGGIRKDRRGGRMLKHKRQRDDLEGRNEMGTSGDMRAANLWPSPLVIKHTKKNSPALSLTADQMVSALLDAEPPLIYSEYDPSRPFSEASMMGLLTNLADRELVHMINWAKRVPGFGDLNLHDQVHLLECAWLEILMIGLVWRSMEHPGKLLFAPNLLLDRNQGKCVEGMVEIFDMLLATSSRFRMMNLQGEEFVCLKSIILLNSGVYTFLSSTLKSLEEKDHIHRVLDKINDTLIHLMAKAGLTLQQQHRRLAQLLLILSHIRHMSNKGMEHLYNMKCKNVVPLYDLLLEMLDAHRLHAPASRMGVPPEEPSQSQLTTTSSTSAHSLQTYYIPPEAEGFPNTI
Summary of the method: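 Cytosol from Brown Norway rat uteri, homogenised in 10 mM Tris pH 7.4 with EDTA, glycerol and PMSF, spun at 30000×g, diluted to about 1 mg/ml protein.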

[1] = tested on: Human airway smooth muscle (HASM) cells; experiment: Thrombin-induced proliferation of human airway smooth muscle (HASM) cells, cell number after 48 h; type: cell-based; settings: for Cell number (% control) Thrombin (0.3 U/ml): 30 min pre-incubation, mean ± SEM (n), without analogue 133.5 ± 4.1; for Cell number (% control) Thrombin (0.3 U/ml) / inhibition of thrombin-mediated HASM proliferation, in words (FIG. 1): 48 h; for HASM-Thr pIC50 / IC50: negative log of the concentration that reduces the thrombin-induced proliferative response by 50%, pIC50 of 4.00 = inactive; for inhibition of thrombin-mediated HASM proliferation, in words (FIG. 1): thrombin 0.3 U/ml; for HASM- Thr pIC25 / HASM- Thr pIC75: two site model, thrombin-induced proliferation; for HASM- Thr pIC25: first phase (inhibition up to 50%); for HASM- Thr pIC75: second phase (inhibition up to 100%); for IC50: Homo sapiens, read-out: HASM-Thr pIC50 (converted)
Summary of the method: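 Primary human bronchial smooth muscle cells seeded at 1.5×10^4 cells/cm², serum-starved 24 h, pre-incubated with compound 30 min, then stimulated 48 h with thrombin 0.3 U/ml. Cells counted by haemocytometer with trypan blue; pIC50 as negative log concentration halving proliferative response.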

[2] = 3H-estradiol displacement, cytosolic preparations of rat uterus, pIC50 of 4.00 = inactive

SMILES | displacement of ^3H-Estradiol, in words (Estrogen Receptor (ER)) | ER affinity (pIC50 ^3H-E2 displacement) (Estrogen Receptor (ER)) | Cell number (% control) Thrombin (0.3 U/ml) ([1]; analogue 1 μM) | HASM-Thr pIC50 [1] | inhibition of thrombin-mediated HASM proliferation, in words (FIG. 1) [1] | HASM- Thr pIC25 [1] | HASM- Thr pIC75 [1] | IC50 (Estrogen Receptor (ER); [2]) [nM] | IC50 [1] [nM] | Cell number (% control) Thrombin (0.3 U/ml) ([1]; analogue 10 μM) | ER-RLB pIC50 (Estrogen Receptor (ER); [2])
COc1cc2c(cc1O)C(=NOCc1ccc([N+](=O)[O-])cc1)C[C@@H]1[C@@H]2CC[C@]2(C)[C@@H](O)CC[C@@H]12 [CP-DM-2-11-7, 2-methoxy-6-(4-nitrobenzyloxy)iminoestradiol] | little or no detectable displacement | <5.0 | 111.1 ± 6.9 (13) % control | 6.90 | inhibitory activity on proliferation of HASM cells over a wide concentration range (10 nM to 10 μM) | 8.82 | 5.66 |  |  |  | 
COc1cc2c(cc1O)/C(=N/OCc1cc(F)cc(F)c1)C[C@@H]1[C@@H]2CC[C@]2(C)[C@@H](O)CC[C@@H]12 [CP-DM-4-35, 6-(3,5-difluorobenzyloxy)imino-2-methoxyestradiol] |  |  |  |  |  | 7.80 | 5.75 | 5250 | 141 |  | 
C[C@]12CC[C@@H]3c4ccc(O)cc4CC[C@H]3[C@@H]1CC/C2=N\OCc1cccc([N+](=O)[O-])c1 [CP-DM-3-102, estrone-17-(3-nitrobenzyl)oxime] |  |  |  |  |  | 8.03 | 5.99 | 2400 | 89.1 |  | 
COc1cc2c(cc1O)CC[C@@H]1[C@@H]2CC[C@]2(C)[C@@H](O)CC[C@@H]12 [2-methoxyestradiol, reference compound] |  | 6.8 |  | 5.49 |  | 5.94 | 4.98 |  |  | 100.9 ± 8.1 (13) % control | 
COc1cc2c(cc1O)C(=NOCc1ccc([N+](=O)[O-])cc1)C[C@@H]1[C@@H]2CC[C@]2(C)C(=NO)CC[C@@H]12 [CP-DM-3-91, 2-methoxy-6-(4-nitrobenzyloxy)iminoestrone-17-oxime] | little or no detectable displacement | <5.0 | 117.5 ± 8.5 (8) % control | 7.59 | considerably more potent than either 2MEO or 4NO | 10.32 | 5.70 |  |  |  | 4.26
COc1cc2c(cc1O)/C(=N/OCc1ccc(SC(F)(F)F)cc1)C[C@@H]1[C@@H]2CC[C@]2(C)[C@@H](O)CC[C@@H]12 [CP-DM-4-65, 2-methoxy-6-(4-trifluoromethylthiobenzyloxy)iminoestradiol] |  |  |  |  |  |  |  | 646 | 224 |  | 
